From BindingDB's records for doi:10.1016/s0960-894x(01)00594-7 (The University of Newcastle, 2001)
pIC50: −log10 of the molar value.

Molecular target: Protein phosphatase 1 catalytic subunit (PPP1CA)
Assay: Inhibitory concentration against protein phosphatase 1 (PP1) was determined

SMILES | pIC50
O=C(O)[C@@H](Cc1ccccc1)N1C(=O)[C@@H]2[C@H](C1=O)[C@H]1CC[C@@H]2O1 [(R)-2-((1S,2R,6S,7R)-3,5-Dioxo-10-oxa-4-aza-tricyclo[5.2.1.0*2,6*]dec-4-yl)-3-phenyl-propionic acid] | < 3.00
CC(C)C[C@H](C(=O)O)N1C(=O)[C@@H]2[C@H](C1=O)[C@H]1CC[C@@H]2O1 [(R)-2-((1S,2R,6S,7R)-3,5-Dioxo-10-oxa-4-aza-tricyclo[5.2.1.0*2,6*]dec-4-yl)-4-methyl-pentanoic acid] | < 3.00
O=C(O)CC[C@H](C(=O)O)N1C(=O)[C@@H]2[C@H](C1=O)[C@H]1CC[C@@H]2O1 [(R)-2-((1S,2R,6S,7R)-3,5-Dioxo-10-oxa-4-aza-tricyclo[5.2.1.0*2,6*]dec-4-yl)-pentanedioic acid] | 4.02
O=C(O)[C@H](Cc1ccccc1)N1C(=O)[C@@H]2[C@H](C1=O)[C@H]1CC[C@@H]2O1 [(S)-2-((1S,2R,6S,7R)-3,5-Dioxo-10-oxa-4-aza-tricyclo[5.2.1.0*2,6*]dec-4-yl)-3-phenyl-propionic acid] | < 3.00
CC(C)C[C@@H](C(=O)O)N1C(=O)[C@@H]2[C@H](C1=O)[C@H]1CC[C@@H]2O1 [(S)-2-((1S,2R,6S,7R)-3,5-Dioxo-10-oxa-4-aza-tricyclo[5.2.1.0*2,6*]dec-4-yl)-4-methyl-pentanoic acid] | < 3.00
